The subject of this data set is Kif11 mRNA. As to the kind of experiment: In vivo administration of LNPs to mice, H&E histopathology of aberrant mitotic figures. Conditions: mouse bone marrow, 5 consecutive high power (400×) microscopic fields per sample. The method, then: In Vivo Administration. Selected LNPs were dosed IV via tail vein injection on three successive days and the indicated tissues (see FIG. 11-13) were harvested and fixed in 10% zinc-formalin overnight, processed, paraffin embedded, sectioned at 5 μm, and stained with hematoxylin and eosin for histopathology assessment. In vivo delivery and Kif11 knockdown was shown with an increase in aberrant mitotic figures as a surrogate for Kif11 mRNA loss in murine liver, spleen and bone marrow tissue. Mitotic figures refer to chromosome aggregation during mitosis.

Strand notation (5' to 3'): a small letter for the sugar, then the base; units joined by * are phosphorothioate-linked, units joined directly phosphodiester-linked; [ ] holds rarer units or linkages, { } end groups; capitals alone tell only the bases. d = 2'-deoxy (DNA); m = 2'-O-methyl; r = 2'-OH (RNA)

The text below walks through data of patent publication US20130072543A1, “Compounds and Compositions for Nucleic Acid Formulation and Delivery” (ARROWHEAD RESEARCH CORPORATION, priority 2011, published 2013).

Turning to “LUC: control siRNA targeting Firefly Luciferase mRNA, 21 nucleotides, SEQ ID 3 and 4 (chain 1 mCmUmUrAmCrGmCmUrGrArGmUrAmCmUmUmCrGrAdT*dT; chain 2 rUrCrGrArArGmUrArCrUmCrArGrCrGmUrArArGdT*dT; listed as Photinus pyralis)”, the “Average no. of aberrant mitotic figures” value is given as 0.
